Laboratory results from patent publication US9839594B2, “Skin-moisturising or wrinkle-improving external composition and cosmetic composition” (KOREA INSTITUTE OF ORIENTAL MEDICINE, priority 2012, dated 2017).

Columns and labels:
Assay type in all cases: in vivo, hairless mice (male HR-1)
[1] = system: back skin tissues of hairless mice; experiment: Histological observation of skin (H&E and Masson's trichome staining); settings: 0.25% (w/v) topical, 12 weeks, UVB irradiation
Description: (§1) 7-week old male hairless mice (male HR-1, hairless mice, Japan SLC, Inc.), the experimental animals, were purchased from Central Lab. Animal Inc (Seoul, Korea). and used after an adaption period of a week. Only healthy animals were used in the experiments by observing general conditions during the adaption period. The breeding environment was maintained at 23±3° C. with 50±5% humidity with a light-dark cycle of 12 hours (7:00-19:00/lighting time). During the experiments, seven experimental animals per each experimental group were raised in a polycarbonate cage (200×320×145 mm, Three-shine Co., Daejeon, Korea), and the animals were given both mouse feed 5L79 (Charles river, USA) and tap water for drinking sterilized with UV rays to be consumed freely.
The experiments were carried out on the following groups: a control group (Con), a UV-treated group (UV), an excipient-treated group (Vehicle), and a group treated by the compound represented by Formula 1 (TM), and the samples were administered thereto. The sample administration was performed for 12 weeks in total by spreading the samples onto skins. For the compound treated group (TM), the compound was dissolved in dimethyl sulfoxide (DMSO), and subsequently in a mixed solution containing propylene glycol, ethanol, and poly ethylene glycol with a 1:1:1 ratio, and the dissolved formulation (the final concentration of the compound was 0.25% (w/v)) was applied to skins with the amount of 40 uL per 6 cm^2 once a day for 5 days a week. The excipient-treated group (Vehicle) were treated in the same manner as the compound treated group (TM), except the compound omitted.
(§2) Ultraviolet irradiation was performed on the experimental groups except for the control group using a UVB lamp (Mineralight UV Display lamp, UVP, USA) three times a week for 8 weeks. […] The UV irradiance was measured by a radiometry instrument (Delta OHM, Italy), and then, was adjusted according to irradiation time. […]

[2] = system: back skin tissues of hairless mice; experiment: Epidermis thickness measured in H&E-stained tissues; settings: 0.25% (w/v) topical, 12 weeks; UVB irradiation; p<0.05
Description: as §1, with “freely. […]” for “freely.”
as §2
The epidermis thickness was measured from the keratin layer to the epidermal basement membrane of tissues, which were stained with H&E in Experimental Example 3), by a ruler installed in a microscope, and the result is shown in FIG. 6.

[3] = system: back skins of hairless mice; experiment: Transepidermal water loss (TEWL) analysis; settings: 0.25% (w/v) topical, 12 weeks; UVB irradiation; Tewameter at 23° C., relative humidity 50%; p<0.01
Description: 7-week old male hairless mice (male HR-1, hairless mice, Japan SLC, Inc.), the experimental animals, were purchased from Central Lab. Animal Inc (Seoul, Korea). and used after an adaption period of a week. Only healthy animals were used in the experiments by observing general conditions during the adaption period. The breeding environment was maintained at 23±3° C. with 50±5% humidity with a light-dark cycle of 12 hours (7:00-19:00/lighting time). […]
(§3) Ultraviolet irradiation was performed on the experimental groups except for the control group using a UVB lamp (Mineralight UV Display lamp, UVP, USA) three times a week for 8 weeks. […] The UV irradiance was measured by a radiometry instrument (Delta OHM, Italy), and then, was adjusted according to irradiation time.
To confirm the skin-moisturizing effect, the transepidermal water loss analysis was carried out with back skins of hairless mice in each experimental group. The transepidermal water loss level refers to the water quantity diffused from a skin, and if the level is high, it would mean that the skin moisturizing function is weakened, and that the function of innate skin barrier is damaged. […] The evaporated water quantity was then measured using Tewameter, and the skin moisturizing-ability was calculated.

skins of hairless mice = experiment: Skin wrinkle measurement with silicone skin replica of back skin of UV-irradiated hairless mice; settings: 12 weeks
Description: as §1
The experiments were carried out on the following groups: a control group (Con), a UV-treated group (UV), an excipient-treated group (Vehicle), and a group treated by the compound represented by Formula 1 (TM), and the samples were administered thereto. The sample administration was performed for 12 weeks in total by spreading the samples onto skins. […]
as §3
The degree of wrinkle formation was measured with a silicone skin replica of the back skins of the hairless mice of each experimental group. […] A shadow image, generated according to the thickness of the skin replica, was filed using a CCD camera, and the depth and length of wrinkles were measured using the Skin Visiometer VL 650 software, which is a computer image analysis system. […]

[4] = compared to UV-treated group and excipient-treated group

## C[C@H]1CCC2(OC1)OC1CC3C4CC[C@@H]5CC(OC6OC(CO)C(O)C(O)C6OC6OC(CO)C(O)C(O)C6O)CC[C@]5(C)C4CC[C@]3(C)C1[C@@H]2C (some centres unmarked) [compound represented by Formula 1]
[1]; compared to UV-treated group
  collagen fibers (Masson's trichome staining, FIG. 5): collagen fibers were increased
[1]; [4]
  cornified layers (H&E staining, FIG. 4): cornified layers were alleviated
  epidermis (H&E staining, observed, FIG. 4): thinner epidermises were observed
[2]
  epidermis thickness (keratin layer to epidermal basement membrane, FIG. 6): significantly reduced
[3]
  skin water loss induced by UV rays (transepidermal water loss, FIG. 7): significantly prevented
Skins of hairless mice; 0.25% (w/v) spread onto skin, 40 uL per 6 cm^2 once a day 5 days a week, UVB irradiation 8 weeks, compared to UV-treated group
  degree of skin-wrinkle formation (skin replica image, FIG. 1): thick wrinkles were alleviated
Skins of hairless mice; 0.25% (w/v) topical, UVB irradiation, compared to UV group and excipient-treated group (Vehicle), p<0.0001
  mean wrinkle length (FIG. 2): significantly reduced
Skins of hairless mice; 0.25% (w/v) topical, UVB irradiation, compared to UV-treated group, p<0.0001
  mean wrinkle depth (FIG. 3): significantly reduced
